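Cultured in 96-well plates, cells were exposed to test compound for 48 hours across five concentrations. GI50 is the concentration that inhibits growth by half.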 Activity calls are given as the source filed them. Cut-off read from the data, not from the text of the source: active = GI50 up to about 1.1 µM and inactive = higher.
Key:
Test in all cases: growth of human tumour cells (NCI), 48 h
A498 = system: A498
A549 = system: A549
CCRF-CEM = system: CCRF-CEM
HL-60 = system: HL-60
HT-29 = system: HT-29
Malme-3M = system: Malme-3M
NCI-H460 = system: NCI-H460
NCI-H522 = system: NCI-H522
OVCAR-4 = system: OVCAR-4
OVCAR-5 = system: OVCAR-5
PC-3 = system: PC-3
RPMI-8226 = system: RPMI-8226
RXF 393 = system: RXF 393
SF-539 = system: SF-539
SK-MEL-5 = system: SK-MEL-5
SK-OV-3 = system: SK-OV-3
SR = system: SR
UACC-62 = system: UACC-62
M19-MEL = system: M19-MEL
LXFL 529 = system: LXFL 529

Measured: GI50

O=C(O)c1ccc(Cc2ccccc2C(=O)O)cc1
inactive: A498 > 100 µM | A549 > 100 µM | CCRF-CEM > 100 µM | HL-60 > 100 µM | HT-29 > 100 µM | Malme-3M > 100 µM | NCI-H460 > 100 µM | NCI-H522 > 100 µM | OVCAR-4 > 100 µM | OVCAR-5 > 100 µM | PC-3 > 100 µM | RPMI-8226 > 100 µM | RXF 393 > 100 µM | SF-539 > 100 µM | SK-MEL-5 > 100 µM | SK-OV-3 > 100 µM | SR > 100 µM | UACC-62 > 100 µM

CN(C)CCNC(=O)c1cccc2[nH]c(-c3ccccc3)nc12
inactive: A498 13.1 µM | A549 16.3 µM | CCRF-CEM 15.9 µM | HL-60 21.7 µM | HT-29 19.8 µM | M19-MEL 19.4 µM | NCI-H460 15.4 µM | OVCAR-4 28.4 µM | OVCAR-5 15.7 µM | RPMI-8226 32.1 µM | RXF 393 17.2 µM | SF-539 12.2 µM | SK-MEL-5 15.1 µM | SK-OV-3 17.3 µM | UACC-62 18.5 µM

COc1ccc(C(O)/C(=N/N)c2nc3ccc(Cl)cc3nc2O)cc1 (stereo not given)
inactive: A498 > 100 µM | A549 > 100 µM | CCRF-CEM > 100 µM | HL-60 > 100 µM | HT-29 > 100 µM | Malme-3M > 100 µM | NCI-H460 > 100 µM | NCI-H522 > 100 µM | OVCAR-4 > 100 µM | OVCAR-5 > 100 µM | PC-3 > 100 µM | RPMI-8226 97.7 µM | RXF 393 > 100 µM | SF-539 > 100 µM | SK-MEL-5 > 100 µM | SK-OV-3 > 100 µM | SR > 100 µM | UACC-62 > 100 µM

CN(C(=N)c1ccccc1)c1ccccc1
inactive: A498 > 10 µM | A549 > 100 µM | CCRF-CEM > 100 µM | HL-60 > 100 µM | HT-29 > 100 µM | LXFL 529 > 100 µM | M19-MEL > 100 µM | OVCAR-4 > 100 µM | RPMI-8226 > 100 µM | SF-539 > 100 µM | SK-MEL-5 > 100 µM | SK-OV-3 > 100 µM | UACC-62 > 100 µM

CC1/C=C/C=C/CC/C=C/C=C/C=C/C=C/C(OC2OC(C)C(O)C(N)C2O)CC2OC(CC(O)C(O)CCC(O)CC(O)CC(O)CC(=O)OC(C)C(C)C1O)CC(O)C2C(=O)O (stereo not given)
inactive: A498 18.7 µM | A549 18 µM | CCRF-CEM 28.8 µM | HL-60 23.9 µM | HT-29 17.3 µM | Malme-3M 17.9 µM | NCI-H460 17.5 µM | NCI-H522 19.3 µM | OVCAR-4 15.2 µM | OVCAR-5 17.9 µM | PC-3 18.8 µM | RPMI-8226 22.6 µM | RXF 393 13.8 µM | SF-539 16.1 µM | SK-MEL-5 19.7 µM | SK-OV-3 23.2 µM | SR 16.9 µM | UACC-62 20.9 µM

COc1nc(=O)n(COC(CO)CN2C(=O)c3ccccc3C2=O)cc1Cc1cccc(OCc2ccccc2)c1 (stereo not given)
inactive: A549 23.5 µM | CCRF-CEM 24.1 µM | HL-60 21.1 µM | HT-29 34 µM | LXFL 529 30.1 µM | M19-MEL 20.7 µM | OVCAR-4 21.8 µM | RPMI-8226 18.6 µM | SF-539 16.6 µM | SK-MEL-5 15.7 µM | SK-OV-3 26.5 µM | UACC-62 14.6 µM

C=C(Br)C(C)(Br)CCC(Br)C(C)(C)Cl (stereo not given)
inactive: A498 20.8 µM | A549 > 54.7 µM | CCRF-CEM 2.96 µM | HL-60 2.81 µM | HT-29 17.9 µM | Malme-3M 20.1 µM | NCI-H460 18.3 µM | NCI-H522 6.62 µM | OVCAR-4 18.9 µM | OVCAR-5 18.8 µM | PC-3 20.4 µM | RPMI-8226 15.4 µM | RXF 393 20 µM | SF-539 16.8 µM | SK-MEL-5 17.2 µM | SK-OV-3 27.8 µM | SR 3.5 µM | UACC-62 20.4 µM

CCCCCCCC(=O)N1C2CC3CCC2(CS1(=O)=O)C3(C)C (stereo not given)
inactive: A498 76.9 µM | A549 27 µM | CCRF-CEM 16.5 µM | HL-60 20 µM | HT-29 > 10 µM | Malme-3M 16.7 µM | NCI-H460 30.1 µM | NCI-H522 19.4 µM | OVCAR-4 32.7 µM | OVCAR-5 44.8 µM | PC-3 23.7 µM | RPMI-8226 19.7 µM | RXF 393 13.3 µM | SF-539 16.9 µM | SK-MEL-5 18.2 µM | SK-OV-3 46.8 µM | SR 18.6 µM | UACC-62 22.8 µM

CCOC(=O)c1nc2cc(C(F)(F)F)ccc2nc1Nc1ccc(Cl)c(Cl)c1
inactive: A498 > 100 µM | A549 84.3 µM | CCRF-CEM 67.5 µM | HL-60 31.8 µM | HT-29 66.8 µM | Malme-3M > 100 µM | NCI-H460 35.3 µM | NCI-H522 > 100 µM | OVCAR-4 97.5 µM | OVCAR-5 > 100 µM | PC-3 75.2 µM | RPMI-8226 33.4 µM | RXF 393 > 100 µM | SF-539 > 100 µM | SK-MEL-5 > 100 µM | SK-OV-3 97.9 µM | SR 49.9 µM | UACC-62 > 100 µM

O=c1nc(NC(c2ccccc2)(c2ccccc2)c2ccccc2)ccn1CCO
inactive: A498 > 100 µM | A549 41.1 µM | HL-60 41 µM | HT-29 60 µM | LXFL 529 63.4 µM | Malme-3M > 100 µM | NCI-H460 57 µM | NCI-H522 51.5 µM | OVCAR-4 63.2 µM | OVCAR-5 > 100 µM | RPMI-8226 49.8 µM | RXF 393 6.52 µM | SF-539 > 100 µM | SR 36.3 µM

c1ccc(CCCC2Sc3cccc4cccc(c34)S2)cc1
inactive: A549 > 100 µM | CCRF-CEM > 100 µM | HL-60 64.6 µM | HT-29 78.9 µM | LXFL 529 > 100 µM | M19-MEL 79.1 µM | Malme-3M 78.3 µM | NCI-H460 > 100 µM | NCI-H522 92.7 µM | OVCAR-4 > 100 µM | OVCAR-5 > 100 µM | RPMI-8226 52.7 µM | RXF 393 > 100 µM | SF-539 > 100 µM | SK-MEL-5 78.3 µM | SK-OV-3 > 100 µM | UACC-62 > 100 µM

CCOC(=O)C1(c2ccccc2)CCC(=O)CC1
inactive: A498 > 100 µM | A549 > 100 µM | CCRF-CEM > 100 µM | HL-60 > 100 µM | HT-29 > 100 µM | LXFL 529 > 100 µM | M19-MEL > 100 µM | Malme-3M > 100 µM | NCI-H460 > 100 µM | NCI-H522 > 100 µM | OVCAR-4 > 100 µM | OVCAR-5 > 100 µM | RXF 393 > 100 µM | SK-MEL-5 > 100 µM | SK-OV-3 > 100 µM | UACC-62 > 100 µM

CC1CC(c2ccccc2)Nc2nc3ccccc3n21 (stereo not given)
inactive: A498 > 100 µM | A549 > 100 µM | CCRF-CEM > 100 µM | HL-60 > 100 µM | HT-29 39.1 µM | Malme-3M > 100 µM | NCI-H460 > 100 µM | NCI-H522 > 100 µM | OVCAR-4 > 100 µM | OVCAR-5 > 100 µM | PC-3 > 100 µM | RPMI-8226 > 100 µM | RXF 393 > 100 µM | SF-539 > 100 µM | SK-MEL-5 > 100 µM | SK-OV-3 > 100 µM | SR > 100 µM | UACC-62 > 100 µM

COC(=O)Nc1nc2cc(S(=O)(=O)N3CCOCC3)ccc2[nH]1
inactive: A498 > 100 µM | A549 > 100 µM | CCRF-CEM 52.8 µM | HL-60 6.21 µM | HT-29 > 100 µM | Malme-3M > 100 µM | NCI-H460 > 100 µM | NCI-H522 > 100 µM | OVCAR-4 > 100 µM | OVCAR-5 > 100 µM | PC-3 > 100 µM | RPMI-8226 30.3 µM | RXF 393 > 100 µM | SF-539 12.4 µM | SK-MEL-5 > 100 µM | SK-OV-3 > 100 µM | SR 51.1 µM | UACC-62 > 100 µM

O=[N+]([O-])C1C2C=CC(C2)[C@H]1c1ccccc1Cl (stereo not given in full)
inactive: A498 > 89.9 µM | A549 > 84.5 µM | CCRF-CEM 87.5 µM | HL-60 29.9 µM | HT-29 99.8 µM | LXFL 529 75 µM | Malme-3M 99.1 µM | NCI-H460 > 100 µM | NCI-H522 23.8 µM | OVCAR-4 > 10 µM | OVCAR-5 16.5 µM | RPMI-8226 > 69.8 µM | RXF 393 45.8 µM | SF-539 > 100 µM | SK-MEL-5 53.5 µM | SK-OV-3 > 31.6 µM | SR 47.9 µM | UACC-62 27.5 µM

Brc1ccc(C[N+]23CN4CN(CN(C4)C2)C3)cc1
inactive: A549 40.4 µM | CCRF-CEM 20.5 µM | HL-60 10.4 µM | M19-MEL 41.8 µM | Malme-3M 26.2 µM | NCI-H460 28.3 µM | NCI-H522 17.1 µM | RPMI-8226 20.4 µM | RXF 393 17 µM | SF-539 40.3 µM | SK-OV-3 > 100 µM | SR > 10 µM | UACC-62 14.8 µM

N=C(N)N/N=C/c1c(Cl)nc2sccn12
inactive: A498 28.2 µM | A549 30.5 µM | CCRF-CEM 21.1 µM | HL-60 17.4 µM | HT-29 17.3 µM | Malme-3M 23.3 µM | NCI-H460 16.7 µM | NCI-H522 27 µM | OVCAR-4 19.2 µM | OVCAR-5 28.8 µM | PC-3 30.4 µM | RPMI-8226 19.4 µM | RXF 393 28.2 µM | SF-539 19.8 µM | SK-MEL-5 15.8 µM | SK-OV-3 60.1 µM | SR 22.9 µM | UACC-62 31.8 µM

Reference: ChEMBL document CHEMBL1201862, “PubChem BioAssay data set” (2004)
